Test results from patent US11753370B2, “Methods of making deuterium-enriched N-acetylcysteine amide (d-NACA) and (2R, 2R′)-3,3′-disulfanediyl bis(2-acetamidopropanamide) (diNACA) and using d-NACA and diNACA to treat diseases involving oxidative stress” (Nacuity Pharmaceuticals, Inc., priority 2017, dated 2023).

Test: Plasma half-life
Format: in vivo
Text: Metabolism. An advantage of diNACA over N-acetylsysteine amide (NACA) is the reduction in metabolism rate compared to NACA. DiNACA has a longer plasma half-life than NACA. The major metabolites of diNACA are NACA and N-acetylcysteine (NAC) afforded by cleavage of the sulfur bond of diNACA to yield NACA and NAC. Dosing the patient with diNACA affords high greater bioavailability in tissues like the retina and aqueous humore compared to dosing with NACA, presumably due the higher lipophilicity of diNACA compared to NACA and the resulting in vivo cleavage to two NACA-like molecules, thereby effectively increasing the half-life of NACA in the body.
Metabolism. Deuterium-inhibition of NACA metabolism. An advantage of NACA-d3 is the reduction in metabolism rate compared to the non-deuterated NACA. Non-deuterated NACA has a plasma half-life of approximately 2 hours in fasting subjects and approximately 6 hours in fed subjects. The major metabolite of NACA is N-acetylcysteine (NAC) afforded by deamidation of the primary amide functional group of NACA by tissue (e.g., plasma or other tissue) amidase. Another metabolite of NACA is cysteine afforded by (a) deamidation of the primary amide functional group of NACA by tissue (e.g., plasma or other tissue) amidase and (b) de-acetylation of the secondary amide functional group of NACA by tissue (e.g., plasma or other tissue) amidase. Replacement of the acetyl methyl group hydrogen atoms with deuterium atoms slows down the action of tissue amidases on both (primary and secondary) amide functional groups of NACA-d3, thereby prolonging its residence time in the body, i.e., increasing the half-life in the body.

Compound | plasma half-life (fasting subjects) | plasma half-life (fed subjects) | plasma half-life compared to NACA (comparison with NACA)
N-acetylcysteine amide [NACA] | approximately 2 hours | approximately 6 hours | 
CC(=O)N[C@@H](CSSC[C@H](NC(C)=O)C(N)=O)C(N)=O [DiNACA, (2R,2R′)-3,3′-disulfanediyl bis(2-acetamidopropanamide)] |  |  | longer
